{"source": "patent US20030013660A1", "about": "“Dioxolane analogs for improved inter-cellular delivery” (Shire BioChem Inc., priority 2000, published 2003)", "key": {"hENT1 [1]": {"target": "T1, hENT1 (Homo sapiens, UniProt Q99808)", "T1 sequence (Q99808 1-456)": "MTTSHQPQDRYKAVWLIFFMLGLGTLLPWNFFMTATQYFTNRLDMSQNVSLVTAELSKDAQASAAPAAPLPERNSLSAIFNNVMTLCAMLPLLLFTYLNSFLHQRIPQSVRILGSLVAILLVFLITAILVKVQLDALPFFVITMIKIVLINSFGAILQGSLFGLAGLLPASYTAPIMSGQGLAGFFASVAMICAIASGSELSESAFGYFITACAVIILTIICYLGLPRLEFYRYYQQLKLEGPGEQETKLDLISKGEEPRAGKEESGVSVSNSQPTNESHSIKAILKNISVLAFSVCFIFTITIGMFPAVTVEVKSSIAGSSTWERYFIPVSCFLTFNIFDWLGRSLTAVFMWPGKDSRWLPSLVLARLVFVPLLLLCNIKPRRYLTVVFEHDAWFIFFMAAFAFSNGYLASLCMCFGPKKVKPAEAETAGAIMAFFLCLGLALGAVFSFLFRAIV", "test": "Cellular uptake assay of [3H]nucleoside in DU145 cells, with or without NBMPR or excess non-radioactive troxacitabine", "type": "in vitro ADME", "set-up": "The presence of functional es-mediated transport (hENT1) in DU145 cells; endogenous in cells; host or cells: DU145 cells", "procedure": "(§1) Cancer Res., 56: 4187-4191.\nThis experiment is designed to show whether [^3H]L-troxacitabine (10 μM) is taken up by DU145 cells and if the rate of uptake is affected by the addition of high concentrations (1 mM) of non-radioactive troxacitabine."}, "hENT1 [2]": {"target": "T1, hENT1", "test": "Cellular uptake assay of [3H]nucleoside in CEM cells (es activity)", "type": "in vitro ADME", "set-up": "endogenous in cells", "settings": "compared with uridine", "procedure": "(§2) FIG. 1 Comparative uptake of 30 μM [^3H]-troxacitabine in CEM (Panel A) and CEM/ARAC8C (Panel B) cells. [^3H]-Uridine uptake in either the presence or absence of the hENT1 inhibitor, NBMPR or 5 mM non-radioactive uridine was included for comparison as a control substrate.\nas §1\nThe transport of [^3H]uridine was inhibited in the presence either of the hENT1 inhibitor, NBMPR, or excess non-radioactive uridine."}, "hCNT3": {"target": "T2, hCNT3 (Homo sapiens, UniProt Q9HAS3)", "T2 sequence (Q9HAS3 1-691)": "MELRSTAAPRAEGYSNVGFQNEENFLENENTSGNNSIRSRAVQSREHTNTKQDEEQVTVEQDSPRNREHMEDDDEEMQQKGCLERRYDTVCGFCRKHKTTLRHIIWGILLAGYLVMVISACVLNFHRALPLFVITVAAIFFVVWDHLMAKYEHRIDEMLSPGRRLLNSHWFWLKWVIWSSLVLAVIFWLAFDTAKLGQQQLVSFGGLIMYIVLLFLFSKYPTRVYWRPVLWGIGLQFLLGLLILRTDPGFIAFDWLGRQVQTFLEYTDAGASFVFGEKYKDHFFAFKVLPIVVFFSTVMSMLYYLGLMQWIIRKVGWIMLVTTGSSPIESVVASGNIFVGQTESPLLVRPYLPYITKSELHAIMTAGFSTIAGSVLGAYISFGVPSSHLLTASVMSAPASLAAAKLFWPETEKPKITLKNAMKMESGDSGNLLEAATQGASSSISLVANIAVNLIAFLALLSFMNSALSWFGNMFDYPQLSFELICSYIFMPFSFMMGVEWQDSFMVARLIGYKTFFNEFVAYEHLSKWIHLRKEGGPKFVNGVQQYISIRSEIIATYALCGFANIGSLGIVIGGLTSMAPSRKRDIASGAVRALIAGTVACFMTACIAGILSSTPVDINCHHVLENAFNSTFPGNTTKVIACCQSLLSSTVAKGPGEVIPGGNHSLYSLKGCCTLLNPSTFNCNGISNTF", "settings": "100-fold non-radioactive troxacitabine, differentiated HL-60", "source_text": "The ability of a high concentration (100-fold) of non-radioactive troxacitabine to inhibit the uptake of ^3H]uridine by hCNT3 was examined in a differentiated HL-60 model system [Ritzel et al. (2000), supra]."}, "hCNT2": {"target": "T3, hCNT2 (Homo sapiens, UniProt O43868)", "T3 construct": "expressed in transfected cells; host or cells: HeLa cells, transient transfection with pcDNA3-hCNT2", "T3 sequence (O43868 1-658)": "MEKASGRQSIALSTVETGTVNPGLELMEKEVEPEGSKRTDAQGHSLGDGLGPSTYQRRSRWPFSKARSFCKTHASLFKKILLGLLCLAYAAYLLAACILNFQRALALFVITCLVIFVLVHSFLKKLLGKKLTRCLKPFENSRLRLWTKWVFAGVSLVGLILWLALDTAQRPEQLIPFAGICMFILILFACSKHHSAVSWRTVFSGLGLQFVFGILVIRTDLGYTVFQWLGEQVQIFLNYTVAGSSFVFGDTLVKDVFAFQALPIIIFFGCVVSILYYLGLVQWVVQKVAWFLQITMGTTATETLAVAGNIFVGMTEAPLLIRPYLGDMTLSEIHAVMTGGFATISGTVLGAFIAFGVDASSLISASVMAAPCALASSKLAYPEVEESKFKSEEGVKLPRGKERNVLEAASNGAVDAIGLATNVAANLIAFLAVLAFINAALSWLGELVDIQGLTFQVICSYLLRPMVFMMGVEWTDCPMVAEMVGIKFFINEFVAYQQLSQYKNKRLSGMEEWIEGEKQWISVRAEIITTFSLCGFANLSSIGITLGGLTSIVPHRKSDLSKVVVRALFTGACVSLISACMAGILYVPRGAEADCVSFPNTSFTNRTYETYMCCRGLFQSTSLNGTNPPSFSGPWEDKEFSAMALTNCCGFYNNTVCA", "test": "Uptake by recombinant transporter in transiently transfected HeLa cells", "type": "in vitro ADME", "settings": "10 μM, 100 μM dilazep", "procedure": "Transport assays were conducted in the presence of the equilibrative transport inhibitor, 100 μM dilazep and either in the presence ( ? ) or absence (▴) of […].sodium, and compared to HeLa cells transiently transfected with the empty vector control plasmic (▾).\nas §1\nExpression plasmids encoding recombinant hCNT1 and hCNT2 are prepared using conventional methods. […] The expression vectors are separately introduced into actively proliferating HeLa cells, following conventional methods. See, e.g., Fang et al (1996).\nRecombinant hCNT1 and hCNT2 were separately introduced into HeLa cells by transient transfection of pcDNA3 plasmids containing the coding sequences of the relevant nucleoside transporter protein. […] Uptake of 10 μM [^3H]troxacitabine was not mediated either by hCNT1 or by hCNT2. Troxacitabine uptake by cib-activity (hCNT3) in differentiated HL-60 cells: […]"}, "CEM/ARAC8C cells": {"tested_on": "CEM/ARAC8C cells", "test": "Cellular uptake assay of [3H]nucleoside in nucleoside-transport deficient CEM/ARAC8C cells", "type": "in vitro ADME", "procedure": "as §2"}}, "data": [{"smiles": "Nc1ccn([C@@H]2CO[C@H](CO)O2)c(=O)n1", "note": "[Troxacitabine, troxacitabine]", "values": [{"measurement": "effect of NBMPR on uptake", "setting": "hENT1 [1]", "value": "not affected"}, {"measurement": "level of [3H] uptake", "setting": "hENT1 [1]", "value": "low levels"}, {"measurement": "effect of non-radioactive troxacitabine (1 mM) on uptake", "setting": "hENT1 [1]; 10 μM [3H]L-troxacitabine", "value": "no significant effect"}, {"measurement": "rate of uptake", "setting": "hENT1 [1]; 10 μM, short (0-30s) and prolonged exposures (0-4 h)", "value": "very slow"}, {"measurement": "uptake of [3H]nucleoside over the 6-min time course", "setting": "hENT1 [2]", "value": "taken up to a lesser degree"}, {"measurement": "effect on [3H]uridine uptake by hCNT3", "setting": "hCNT3", "value": "no effect on uridine uptake"}, {"measurement": "uptake mediated by hCNT2", "setting": "hCNT2", "value": "not mediated"}, {"measurement": "uptake of [3H]nucleoside over the 6-min time course", "setting": "CEM/ARAC8C cells", "value": "taken up to a lesser degree"}]}]}
